Assay results reported in patent US20240409662A1, “ANTIBODY MASKS AND USES THEREOF” (Vibrant Pharma Limited, priority 2021, published 2024).
“Also recorded” adds a separate entry of the source. No end group written: not given here.

B1: L4-G3A (bispecific antibody)
heavy: QDANEEGSGSPLGLGSGSEVKLLESGGGLVQPKGSLKLSCAASGFTFNTYAMNWVRQAPGKGLEWVARIRSKYNNYATYYADSVKDRFTISRDDSQSILYLQMNNLKTEDTAMYYCVRHGNFGNSYVSWFAYWGQGTLVTVSS
light: QAVVTQESALTTSPGETVTLTCRSSTGAVTTSNYANWVQEKPDHLFTGLIGGTNKRAPGVPARFSGSLIGDKAALTITGAQTEDEAIYFCALWYSNLWVFGGGTKVEIK
chain: EVQLVESGGGFVQAGESLTLSCTSSTLTFTPYRMAWYRQAPGKQRDLVADISSGDGRTTNYADFAKGRFTISRDNIKNTVFLRMTNLKPEDTAVYYCNTFVSFVGIARSWGQGTQVTVSSESKYGPPCPPCPAPEAAGGPSVFLFPPKPKDTLMISRTPEVTCVVVDVSQEDPEVQFNWYVDGVEVHNAKTKPREEQFNSTYRVVSVLTVLHQDWLNGKEYKCKVSNKGLPSSIEKTISKAKGQPREPQVCTLPPSQEEMTKNQVSLSCAVKGFYPSDIAVEWESNGQPENNYKTTPPVLDSDGSFFLVSRLTVDKSRWQEGNVFSCSVMHEALHNRFTQKSLSLSL
B2: MMP9-digested L4-D2E (bispecific antibody, not shown: small tags and cut ends)
heavy: EVKLLESGGGLVQPKGSLKLSCAASGFTFNTYAMNWVRQAPGKGLEWVARIRSKYNNYATYYADSVKDRFTISRDDSQSILYLQMNNLKTEDTAMYYCVRHGNFGNSYVSWFAYWGQGTLVTVSS
light: QAVVTQESALTTSPGETVTLTCRSSTGAVTTSNYANWVQEKPDHLFTGLIGGTNKRAPGVPARFSGSLIGDKAALTITGAQTEDEAIYFCALWYSNLWVFGGGTKVEIK
chain: EVQLVESGGGFVQAGESLTLSCTSSTLTFTPYRMAWYRQAPGKQRDLVADISSGDGRTTNYADFAKGRFTISRDNIKNTVFLRMTNLKPEDTAVYYCNTFVSFVGIARSWGQGTQVTVSSESKYGPPCPPCPAPEAAGGPSVFLFPPKPKDTLMISRTPEVTCVVVDVSQEDPEVQFNWYVDGVEVHNAKTKPREEQFNSTYRVVSVLTVLHQDWLNGKEYKCKVSNKGLPSSIEKTISKAKGQPREPQVCTLPPSQEEMTKNQVSLSCAVKGFYPSDIAVEWESNGQPENNYKTTPPVLDSDGSFFLVSRLTVDKSRWQEGNVFSCSVMHEALHNRFTQKSLSLSL
B3: MMP9-digested L5-D2E (bispecific antibody, not shown: small tags and cut ends)
heavy: EVKLLESGGGLVQPKGSLKLSCAASGFTFNTYAMNWVRQAPGKGLEWVARIRSKYNNYATYYADSVKDRFTISRDDSQSILYLQMNNLKTEDTAMYYCVRHGNFGNSYVSWFAYWGQGTLVTVSS
light: QAVVTQESALTTSPGETVTLTCRSSTGAVTTSNYANWVQEKPDHLFTGLIGGTNKRAPGVPARFSGSLIGDKAALTITGAQTEDEAIYFCALWYSNLWVFGGGTKVEIK
chain: EVQLVESGGGFVQAGESLTLSCTSSTLTFTPYRMAWYRQAPGKQRDLVADISSGDGRTTNYADFAKGRFTISRDNIKNTVFLRMTNLKPEDTAVYYCNTFVSFVGIARSWGQGTQVTVSSESKYGPPCPPCPAPEAAGGPSVFLFPPKPKDTLMISRTPEVTCVVVDVSQEDPEVQFNWYVDGVEVHNAKTKPREEQFNSTYRVVSVLTVLHQDWLNGKEYKCKVSNKGLPSSIEKTISKAKGQPREPQVCTLPPSQEEMTKNQVSLSCAVKGFYPSDIAVEWESNGQPENNYKTTPPVLDSDGSFFLVSRLTVDKSRWQEGNVFSCSVMHEALHNRFTQKSLSLSL
B4: L7-D2G (bispecific antibody)
heavy: QGGNEESSGGSGSPLGLSSGGSGSEVKLLESGGGLVQPKGSLKLSCAASGFTFNTYAMNWVRQAPGKGLEWVARIRSKYNNYATYYADSVKDRFTISRDDSQSILYLQMNNLKTEDTAMYYCVRHGNFGNSYVSWFAYWGQGTLVTVSS
light: QAVVTQESALTTSPGETVTLTCRSSTGAVTTSNYANWVQEKPDHLFTGLIGGTNKRAPGVPARFSGSLIGDKAALTITGAQTEDEAIYFCALWYSNLWVFGGGTKVEIK
chain: EVQLVESGGGFVQAGESLTLSCTSSTLTFTPYRMAWYRQAPGKQRDLVADISSGDGRTTNYADFAKGRFTISRDNIKNTVFLRMTNLKPEDTAVYYCNTFVSFVGIARSWGQGTQVTVSSESKYGPPCPPCPAPEAAGGPSVFLFPPKPKDTLMISRTPEVTCVVVDVSQEDPEVQFNWYVDGVEVHNAKTKPREEQFNSTYRVVSVLTVLHQDWLNGKEYKCKVSNKGLPSSIEKTISKAKGQPREPQVCTLPPSQEEMTKNQVSLSCAVKGFYPSDIAVEWESNGQPENNYKTTPPVLDSDGSFFLVSRLTVDKSRWQEGNVFSCSVMHEALHNRFTQKSLSLSL
B5: L5-D2E (bispecific antibody)
heavy: QEGNEESSGGSPLGLSSGGSEVKLLESGGGLVQPKGSLKLSCAASGFTFNTYAMNWVRQAPGKGLEWVARIRSKYNNYATYYADSVKDRFTISRDDSQSILYLQMNNLKTEDTAMYYCVRHGNFGNSYVSWFAYWGQGTLVTVSS
light: QAVVTQESALTTSPGETVTLTCRSSTGAVTTSNYANWVQEKPDHLFTGLIGGTNKRAPGVPARFSGSLIGDKAALTITGAQTEDEAIYFCALWYSNLWVFGGGTKVEIK
chain: EVQLVESGGGFVQAGESLTLSCTSSTLTFTPYRMAWYRQAPGKQRDLVADISSGDGRTTNYADFAKGRFTISRDNIKNTVFLRMTNLKPEDTAVYYCNTFVSFVGIARSWGQGTQVTVSSESKYGPPCPPCPAPEAAGGPSVFLFPPKPKDTLMISRTPEVTCVVVDVSQEDPEVQFNWYVDGVEVHNAKTKPREEQFNSTYRVVSVLTVLHQDWLNGKEYKCKVSNKGLPSSIEKTISKAKGQPREPQVCTLPPSQEEMTKNQVSLSCAVKGFYPSDIAVEWESNGQPENNYKTTPPVLDSDGSFFLVSRLTVDKSRWQEGNVFSCSVMHEALHNRFTQKSLSLSL
B6: L6-D2E (bispecific antibody)
heavy: QEGNEESSGGGSPLGLSSGGGSEVKLLESGGGLVQPKGSLKLSCAASGFTFNTYAMNWVRQAPGKGLEWVARIRSKYNNYATYYADSVKDRFTISRDDSQSILYLQMNNLKTEDTAMYYCVRHGNFGNSYVSWFAYWGQGTLVTVSS
light: QAVVTQESALTTSPGETVTLTCRSSTGAVTTSNYANWVQEKPDHLFTGLIGGTNKRAPGVPARFSGSLIGDKAALTITGAQTEDEAIYFCALWYSNLWVFGGGTKVEIK
chain: EVQLVESGGGFVQAGESLTLSCTSSTLTFTPYRMAWYRQAPGKQRDLVADISSGDGRTTNYADFAKGRFTISRDNIKNTVFLRMTNLKPEDTAVYYCNTFVSFVGIARSWGQGTQVTVSSESKYGPPCPPCPAPEAAGGPSVFLFPPKPKDTLMISRTPEVTCVVVDVSQEDPEVQFNWYVDGVEVHNAKTKPREEQFNSTYRVVSVLTVLHQDWLNGKEYKCKVSNKGLPSSIEKTISKAKGQPREPQVCTLPPSQEEMTKNQVSLSCAVKGFYPSDIAVEWESNGQPENNYKTTPPVLDSDGSFFLVSRLTVDKSRWQEGNVFSCSVMHEALHNRFTQKSLSLSL

Each molecule was assayed against CD3 on human PBMC (human, UniProt P07766 23-207) (assay: cell-based or functional assay). Details: not given.
Sequence of CD3 on human PBMC (P07766 23-207): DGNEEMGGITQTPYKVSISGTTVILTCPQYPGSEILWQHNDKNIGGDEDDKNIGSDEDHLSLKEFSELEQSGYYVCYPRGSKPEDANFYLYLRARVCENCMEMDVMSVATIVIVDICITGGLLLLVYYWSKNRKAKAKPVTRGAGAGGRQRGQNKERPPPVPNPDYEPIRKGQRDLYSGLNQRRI

Point of comparison: B4, “Digested vs. masked (ratio of killing EC50)” value 9 fold. Against it:
- B1 — higher, 144 fold
- B5 — higher, 32 fold
- B6 — higher, 32 fold

Point of comparison: B3, “EC50 of M-TCE-induced killing of HT29 cells in the presence of human PBMC” value 0.013 nM. Against it:
- B1 — 130-fold higher, 1.72 nM
- B2 — within 1.5-fold, 0.011 nM
- B4 — 7.4-fold higher, 0.096 nM
- B5 — 32-fold higher, 0.418 nM
- B6 — 24-fold higher, 0.317 nM

Each molecule was assayed against SP34 (assay: BLI affinity of biotinylated N-terminal CD3ε peptides (on SA biosensor) to SP34 as analyte). Details: peptide immobilized.
Assay type: binding
Text: Bio-Layer Interferometry (BLI) technique was employed for the measurement of protein-protein interactions in this study. A Octet Red96 system and Streptavidin (SA) or AHC biosensors (ForteBio, Fremont) were utilized.
To measure the binding of SP34 to CD3ε peptides, the peptides were immobilized on the SA biosensor through SA-biotin interaction according the manufacturer's instruction. After running PBS with 0.01% Tween-20 buffer to stabilize baselines, the biosensors were dipped into solid black 96-well plates (Greiner Bio-One, Cat. #65520, Monroe, North Carolina, USA) containing SP34 in indicated concentrations. Association and dissociation were measured accordingly, and binding kinetics were calculated using ForteBio's Data Analysis 12.0 software.
BLI technology was employed to measure the affinity of the six peptides to SP34 with a ForteBio Red96. These peptides were immobilized on the SA Biosensor and their affinities were measured using SP34 as the analyte. The binding sensorgrams indicate that SP34 binds to all six peptides with very similar profiles (FIG. 1C). The affinities of the bindings were determined as between 1-4 nM (Table 1), very similar to that of CD3δε/SP34 binding. […] It is further hypothesized that a N-terminal CD3ε peptide […] can bind to SP34 as well.

Point of comparison: “CD3ε-p5: N-terminal human CD3ε peptide with C-terminal GGGGS linker, biotinylated (QDGNEEMGGITQTPYKVGGGGS; not fully specified (C-terminus); also: biotinylated)”, Kd 1.8 nM. Against it:
- CD3ε-p6: N-terminal human CD3ε peptide with C-terminal GGGGS linker, biotinylated (QDGNEEMGGITQTPYKVSISGGGGS; not fully specified (C-terminus); also: biotinylated) — 1.9-fold higher, 3.5 nM
- CD3ε-p3: N-terminal human CD3ε peptide with C-terminal GGGGS linker, biotinylated (QDGNEEMGGITGGGGS; not fully specified (C-terminus); also: biotinylated) — within 1.5-fold, 2 nM
- CD3ε-p7: N-terminal human CD3ε peptide with C-terminal GGGGS linker, biotinylated (QDGNEEMGGITQTPYKVSISGTTGGGGS; not fully specified (C-terminus); also: biotinylated, site not given here) — within 1.5-fold, 1.3 nM
- CD3ε-p2: N-terminal human CD3ε peptide with C-terminal GGGGS linker, biotinylated (QDGNEEMGGGGGS; not fully specified (C-terminus); also: biotinylated) — 2-fold higher, 3.6 nM

Point of comparison: “CD3ε-p6: N-terminal human CD3ε peptide with C-terminal GGGGS linker, biotinylated (QDGNEEMGGITQTPYKVSISGGGGS; not fully specified (C-terminus); also: biotinylated)”, ka 46000 M⁻¹ s⁻¹. Against it:
- CD3ε-p5: N-terminal human CD3ε peptide with C-terminal GGGGS linker, biotinylated (QDGNEEMGGITQTPYKVGGGGS; not fully specified (C-terminus); also: biotinylated) — within 1.5-fold, 54000 M⁻¹ s⁻¹
- CD3ε-p3: N-terminal human CD3ε peptide with C-terminal GGGGS linker, biotinylated (QDGNEEMGGITGGGGS; not fully specified (C-terminus); also: biotinylated) — within 1.5-fold, 56000 M⁻¹ s⁻¹
- CD3ε-p7: N-terminal human CD3ε peptide with C-terminal GGGGS linker, biotinylated (QDGNEEMGGITQTPYKVSISGTTGGGGS; not fully specified (C-terminus); also: biotinylated, site not given here) — 2.2-fold higher, 100000 M⁻¹ s⁻¹
- CD3ε-p2: N-terminal human CD3ε peptide with C-terminal GGGGS linker, biotinylated (QDGNEEMGGGGGS; not fully specified (C-terminus); also: biotinylated) — within 1.5-fold, 65000 M⁻¹ s⁻¹

Point of comparison: “CD3ε-p3: N-terminal human CD3ε peptide with C-terminal GGGGS linker, biotinylated (QDGNEEMGGITGGGGS; not fully specified (C-terminus); also: biotinylated)”, kd 0.00011 s⁻¹. Against it:
- CD3ε-p5: N-terminal human CD3ε peptide with C-terminal GGGGS linker, biotinylated (QDGNEEMGGITQTPYKVGGGGS; not fully specified (C-terminus); also: biotinylated) — within 1.5-fold, 9.8e-05 s⁻¹
- CD3ε-p6: N-terminal human CD3ε peptide with C-terminal GGGGS linker, biotinylated (QDGNEEMGGITQTPYKVSISGGGGS; not fully specified (C-terminus); also: biotinylated) — within 1.5-fold, 0.00016 s⁻¹
- CD3ε-p7: N-terminal human CD3ε peptide with C-terminal GGGGS linker, biotinylated (QDGNEEMGGITQTPYKVSISGTTGGGGS; not fully specified (C-terminus); also: biotinylated, site not given here) — within 1.5-fold, 0.00013 s⁻¹
- CD3ε-p2: N-terminal human CD3ε peptide with C-terminal GGGGS linker, biotinylated (QDGNEEMGGGGGS; not fully specified (C-terminus); also: biotinylated) — 2.2-fold higher, 0.00024 s⁻¹

What follows are molecules tested on SP34 (assay: ELISA of SP34 binding to coated CD3ε1-27-Fc fusion proteins). Details: FIG. 2A.
Description: Examination of binding of SP34 to CD3ε1-27-Fc fusion proteins was conducted by ELISA. 100 μL of 2 μg/mL fusion protein was coated on 96 well microtiter plate (Nunc) at room temperature (RT) overnight. After blocking the wells with 3% milk-PBS (3% non-fat milk in 137 mM NaCl, 2.7 mM KCl, 10 mM Na2HPO4 1.8 mM KH2PO4) at RT for 1 hr and 6 washes with 0.05% PBST (0.05% Tween-20 in PBS), SP34 (5 μg/mL, 50 μL/well) was added to the wells as the first antibody and allowed for incubation at 37° C. for 1 hr. The wells were washed for 6 times with PBST after the incubation, and the second antibody horseradish peroxidase (HRP) labeled anti-Kappa light chain (Sigma, 1:6,000 dilution, 50 μL/well) was added and allowed for incubation at RT for 50 min. After 6 washes with PBST, 3,3′, 5,5′-Tetramethylbenzidine (TMB) was added to develop color, and 1M HCl was then added to stop the reaction. ELISA titer was read with a microtiter plate reader (Thermo Fisher) at 450 nm wavelength.

In the case of “D2E: D2E mutant of the CD3ε1-27-Fc fusion protein”, the “binding of SP34 to fusion protein” value is reported as “significant binding; also recorded: maintained binding”.
“D2C: D2C mutant of the CD3ε1-27-Fc fusion protein” was tested, and the “binding of SP34 to fusion protein” value was “significant binding; also recorded: maintained binding”.
